Measurements as given in ChEMBL document CHEMBL1153777, “Substituted benzothiadizine inhibitors of Hepatitis C virus polymerase” (Bioorg Med Chem Lett, 2009).

Tests used:
[1] = species on record: Homo sapiens; assay: Protein binding in human plasma by equilibrium dialysis; settings: read-out: PPB (converted)
[2] = tested on: Hepatitis C virus; assay: Antiviral activity against HCV 1b after 72 hrs by replicon assay; type: functional, organism-based, Hepacivirus hominis; settings: genotype 1b
[3] = tested on: Hepatitis C virus; assay: Antiviral activity against HCV 1b after 72 hrs by replicon assay in presence of HSA and AAG; type: functional, organism-based, Hepacivirus hominis; settings: genotype 1b
[4] = tested on: Hepatitis C virus; assay: Inhibition of HCV1b Cdelta-21-truncated NS5B by enzymatic assay; type: functional, Hepatitis C virus subtype 1b
[5] = molecular target: Cytochrome P450 2C9 (Homo sapiens, UniProt P11712); assay: Inhibition of CYP2C9; type: ADME
Cytochrome P450 2C9, sequence (P11712 whole entry): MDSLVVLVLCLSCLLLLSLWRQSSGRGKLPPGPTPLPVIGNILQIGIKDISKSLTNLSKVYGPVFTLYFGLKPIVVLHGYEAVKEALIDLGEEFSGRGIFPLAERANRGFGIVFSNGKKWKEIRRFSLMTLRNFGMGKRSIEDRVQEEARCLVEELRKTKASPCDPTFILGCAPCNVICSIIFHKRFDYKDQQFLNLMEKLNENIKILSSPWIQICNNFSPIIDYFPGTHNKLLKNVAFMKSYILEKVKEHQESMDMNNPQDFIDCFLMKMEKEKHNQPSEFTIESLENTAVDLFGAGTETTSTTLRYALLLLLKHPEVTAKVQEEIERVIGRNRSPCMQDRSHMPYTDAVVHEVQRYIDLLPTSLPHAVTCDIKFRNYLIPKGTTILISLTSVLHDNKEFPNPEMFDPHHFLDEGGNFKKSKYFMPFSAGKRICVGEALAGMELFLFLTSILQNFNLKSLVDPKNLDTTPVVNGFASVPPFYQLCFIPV

[6] = Bioavailability in rat at 4 mg/kg, po and 4 mg/kg, iv; type: ADME, organism-based; settings: in vivo
[7] = Half life in rat at 4 mg/kg, po and 4 mg/kg, iv; type: ADME, organism-based; settings: in vivo

SMILES: NC(=O)COc1ccc2c(c1)S(=O)(=O)NC(c1c(O)c3cc(F)ccc3n(CCC3CC3)c1=O)=N2
- fraction unbound [1]: 0.001
- IC50 [2]: 0.002 µM
- IC50 [3]: 1.48 µM
- IC50 [4]: < 0.005 µM
- IC50 [5]: 5.4 µM
- bioavailability [6]: 33%
- half-life [7]: 1 h

SMILES: O=c1c(C2=NS(=O)(=O)c3cc(O)ccc3N2)c(O)c2cc(F)ccc2n1CCC1CC1
- IC50 [2]: 0.057 µM
- IC50 [3]: 50 µM
- IC50 [4]: < 0.005 µM

SMILES: CC(C)CCn1c(=O)c(C2=NS(=O)(=O)c3cc(CC(N)=O)ccc3N2)c(O)c2ccccc21
- IC50 [2]: 0.015 µM
- IC50 [3]: 2.65 µM
- IC50 [4]: 0.006 µM

SMILES: CC(C)(Oc1ccc2c(c1)S(=O)(=O)N=C(c1c(O)c3cc(F)ccc3n(CCC3CC3)c1=O)N2)C(=O)O
- IC50 [2]: 3.74 µM
- IC50 [4]: 0.022 µM

SMILES: C[C@@H](Oc1ccc2c(c1)S(=O)(=O)N=C(c1c(O)c3cc(F)ccc3n(CCC3CC3)c1=O)N2)C(N)=O
- fraction unbound [1]: 0.002
- IC50 [2]: 0.003 µM
- IC50 [3]: 1.02 µM
- IC50 [4]: < 0.005 µM
- IC50 [5]: 1.7 µM
- bioavailability [6]: 35%
- half-life [7]: 0.7 h

SMILES: CC(C)CCn1c(=O)c(C2=NS(=O)(=O)c3cc(OCC#N)ccc3N2)c(O)c2ccccc21
- IC50 [2]: 0.081 µM
- IC50 [4]: 0.007 µM

SMILES: CC(C)CCn1c(=O)c(C2=NS(=O)(=O)c3cc(CCN)ccc3N2)c(O)c2ccccc21
- IC50 [2]: 0.568 µM
- IC50 [4]: 0.142 µM

SMILES: NC(=O)/C=C/c1ccc2c(c1)S(=O)(=O)N=C(c1c(O)c3cc(F)ccc3n(CCC3CC3)c1=O)N2
- IC50 [2]: 0.039 µM
- IC50 [3]: 50 µM
- IC50 [4]: 0.202 µM

SMILES: COC(=O)Cc1ccc2c(c1)S(=O)(=O)N=C(c1c(O)c3ccccc3n(CCC(C)C)c1=O)N2
- IC50 [2]: 0.815 µM
- IC50 [4]: 0.023 µM

SMILES: CC(C)CCn1c(=O)c(C2=NS(=O)(=O)c3cc(F)ccc3N2)c(O)c2ccccc21
- IC50 [2]: 0.334 µM
- IC50 [4]: 0.026 µM

SMILES: CC(C)(Oc1ccc2c(c1)S(=O)(=O)N=C(c1c(O)c3cc(F)ccc3n(CCC3CC3)c1=O)N2)C(N)=O
- IC50 [2]: 0.272 µM
- IC50 [3]: 5.36 µM
- IC50 [4]: 0.009 µM

SMILES: CC(C)CCn1c(=O)c(C2=NS(=O)(=O)c3cc([N+](=O)[O-])ccc3N2)c(O)c2ccccc21
- IC50 [2]: > 20 µM
- IC50 [4]: 0.238 µM

SMILES: CC(C)CCn1c(=O)c(C2=NS(=O)(=O)c3cc(Cl)ccc3N2)c(O)c2ccccc21
- IC50 [2]: 2.32 µM
- IC50 [3]: > 50 µM
- IC50 [4]: 0.076 µM

SMILES: CC(C)CCn1c(=O)c(C2=NS(=O)(=O)c3cc(CC(=O)O)ccc3N2)c(O)c2ccccc21
- IC50 [2]: 1.6 µM
- IC50 [4]: 0.008 µM

SMILES: C[C@H](Oc1ccc2c(c1)S(=O)(=O)N=C(c1c(O)c3cc(F)ccc3n(CCC3CC3)c1=O)N2)C(N)=O
- IC50 [2]: 0.004 µM
- IC50 [3]: 50 µM
- IC50 [4]: 0.012 µM

SMILES: CN(C)C(=O)COc1ccc2c(c1)S(=O)(=O)N=C(c1c(O)c3cc(F)ccc3n(CCC3CC3)c1=O)N2
- IC50 [2]: 0.211 µM
- IC50 [4]: 0.012 µM

SMILES: CC(C)CCn1c(=O)c(C2=NS(=O)(=O)c3cc(N(C)C)ccc3N2)c(O)c2ccccc21
- IC50 [2]: 1.25 µM
- IC50 [4]: 0.142 µM

SMILES: CC(C)CCn1c(=O)c(C2=NS(=O)(=O)c3cc(C(=O)N(C)C)ccc3N2)c(O)c2ccccc21
- IC50 [2]: > 20 µM
- IC50 [4]: 0.102 µM

SMILES: CC(C)CCn1c(=O)c(C2=NS(=O)(=O)c3cc(CCN(C)C)ccc3N2)c(O)c2ccccc21
- IC50 [4]: 0.685 µM

SMILES: COc1ccc2c(c1)S(=O)(=O)N=C(c1c(O)c3cc(F)ccc3n(CCC3CC3)c1=O)N2
- IC50 [2]: 0.342 µM
- IC50 [3]: > 50 µM
- IC50 [4]: 0.024 µM

SMILES: COc1ccc2c(c1)S(=O)(=O)N=C(c1c(O)c3ccccc3n(CCC(C)C)c1=O)N2
- IC50 [2]: 1.39 µM
- IC50 [4]: 0.055 µM

SMILES: N#CCOc1ccc2c(c1)S(=O)(=O)N=C(c1c(O)c3cc(F)ccc3n(CCC3CC3)c1=O)N2
- IC50 [2]: 0.008 µM
- IC50 [3]: 2.39 µM
- IC50 [4]: < 0.005 µM

SMILES: CC(C)CCn1c(=O)c(C2=NS(=O)(=O)c3cc(CC(N)=O)ccc3N2)c(O)c2cc(F)ccc21
- IC50 [2]: 0.013 µM
- IC50 [3]: 3.1 µM
- IC50 [4]: 0.018 µM

SMILES: COC(=O)c1ccc2c(c1)S(=O)(=O)N=C(c1c(O)c3ccccc3n(CCC(C)C)c1=O)N2
- IC50 [2]: 2.62 µM
- IC50 [4]: 0.065 µM

SMILES: CC(=O)c1ccc2c(c1)S(=O)(=O)N=C(c1c(O)c3ccccc3n(CCC(C)C)c1=O)N2
- IC50 [2]: 5.2 µM
- IC50 [4]: 0.127 µM

SMILES: CC(C)CCn1c(=O)c(C2=NS(=O)(=O)c3cc(Br)ccc3N2)c(O)c2ccccc21
- IC50 [2]: 5.14 µM
- IC50 [4]: 0.173 µM

SMILES: O=c1c(C2=Nc3ccccc3S(=O)(=O)N2)c(O)c2cc(F)ccc2n1CCC1CC1
- IC50 [2]: 0.038 µM
- IC50 [3]: 24.5 µM
- IC50 [5]: 0.84 µM
- bioavailability [6]: 44%
- half-life [7]: 3 h

SMILES: O=c1c(C2=NS(=O)(=O)c3cc(OCn4cnnn4)ccc3N2)c(O)c2cc(F)ccc2n1CCC1CC1
- IC50 [2]: 2 µM
- IC50 [4]: 0.006 µM

SMILES: Cc1ccc2c(c1)S(=O)(=O)N=C(c1c(O)c3ccccc3n(CCC(C)C)c1=O)N2
- IC50 [2]: 1.78 µM
- IC50 [4]: 0.05 µM

SMILES: CC(C)CCn1c(=O)c(C2=NS(=O)(=O)c3cc(C(=O)O)ccc3N2)c(O)c2ccccc21
- IC50 [2]: > 20 µM
- IC50 [4]: 0.045 µM

SMILES: CC(C)CCn1c(=O)c(C2=NS(=O)(=O)c3cc(C(N)=O)ccc3N2)c(O)c2ccccc21
- IC50 [2]: 0.383 µM
- IC50 [4]: 0.006 µM

SMILES: CNC(=O)COc1ccc2c(c1)S(=O)(=O)N=C(c1c(O)c3cc(F)ccc3n(CCC3CC3)c1=O)N2
- IC50 [2]: 0.009 µM
- IC50 [3]: 4.74 µM
- IC50 [4]: < 0.005 µM

SMILES: O=C(O)COc1ccc2c(c1)S(=O)(=O)N=C(c1c(O)c3cc(F)ccc3n(CCC3CC3)c1=O)N2
- IC50 [2]: 2.29 µM
- IC50 [4]: < 0.005 µM

SMILES: NC(=O)CCc1ccc2c(c1)S(=O)(=O)N=C(c1c(O)c3cc(F)ccc3n(CCC3CC3)c1=O)N2
- IC50 [2]: 0.208 µM
- IC50 [3]: > 50 µM
- IC50 [4]: 0.005 µM

SMILES: CC(C)CCn1c(=O)c(C2=NS(=O)(=O)c3cc(O)ccc3N2)c(O)c2ccccc21
- IC50 [2]: > 20 µM
- IC50 [4]: 0.03 µM

SMILES: CC(C)CCn1c(=O)c(C2=NS(=O)(=O)c3cc(I)ccc3N2)c(O)c2ccccc21
- IC50 [4]: > 10 µM

SMILES: O=c1c(C2=NS(=O)(=O)c3cc(CO)ccc3N2)c(O)c2cc(F)ccc2n1CCC1CC1
- IC50 [2]: 0.233 µM
- IC50 [4]: 0.017 µM

SMILES: CC(C)CCn1c(=O)c(C2=NS(=O)(=O)c3cc(N)ccc3N2)c(O)c2ccccc21
- IC50 [2]: 0.218 µM
- IC50 [3]: 45 µM
- IC50 [4]: 0.013 µM

SMILES: CC(C)CCn1c(=O)c(C2=NS(=O)(=O)c3cc(C#N)ccc3N2)c(O)c2ccccc21
- IC50 [2]: 0.486 µM
- IC50 [4]: 0.057 µM

SMILES: NC(=O)OCc1ccc2c(c1)S(=O)(=O)N=C(c1c(O)c3cc(F)ccc3n(CCC3CC3)c1=O)N2
- IC50 [2]: 0.048 µM
- IC50 [4]: 0.036 µM

SMILES: CC(C)CCn1c(=O)c(C2=NS(=O)(=O)c3cc(CC#N)ccc3N2)c(O)c2cc(F)ccc21
- IC50 [2]: 0.029 µM
- IC50 [3]: 8 µM
- IC50 [4]: 0.005 µM
